Entries after “also recorded” stand apart in the source; their conditions may differ.
Key:
LRAT = target: T1, LRAT (Bos taurus, UniProt Q9BGL2); experiment: LRAT reaction: formation of all-trans-retinyl esters by RPE microsomes; assay type: biochemical, bovine; conditions: all-trans-retinol substrate
T1 construct: Purified RPE microsomes were the source of the enzymes; from tissue; host or cells: bovine retinal pigment epithelium microsomes
T1 sequence (Q9BGL2 1-230): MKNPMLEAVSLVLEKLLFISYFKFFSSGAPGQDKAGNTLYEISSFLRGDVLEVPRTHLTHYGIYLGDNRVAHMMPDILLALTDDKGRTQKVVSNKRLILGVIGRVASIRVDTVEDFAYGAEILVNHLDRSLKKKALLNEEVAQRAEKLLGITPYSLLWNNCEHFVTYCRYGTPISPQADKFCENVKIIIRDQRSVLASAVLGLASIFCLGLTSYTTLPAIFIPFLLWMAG
Method: To test if 11-cis-retinylamine (11-cis Ret-NH2) affects isomerization and esterification, an in vitro assay was employed. In this assay both of the all-trans-retinyl esters formed in the reaction catalyzed by LRAT and 11-cis-retinol production by isomerase were measured (6). Purified RPE microsomes were the source of the enzymes, and all-trans-retinol was the substrate. […] Inhibition of isomerization by Ret-NH2 is not due to binding of CRALBP or competition with 11-cis-retinol for binding to CRALBP. […] An increased concentration of all-trans-retinol lowered the level of inhibition, as illustrated in FIG. 2B. […] Dixon's and Lineweaver-Burk plots in the standard assay conditions yielded Ki=0.1 μM for Ret-NH2 when all-trans-retinol (KM=0.3 μM) was assumed to be a substrate. […] This estimated value reflects the very potent nature of the inhibition by 11-cis-Ret-NH2.
Materials—Fresh bovine eyes were obtained from a local slaughterhouse (Schenk Packing Co., Inc., Stanwood, Wash.). Preparation of bovine RPE microsomes was performed according to previously described methods (Stecher et al., J Biol Chem 274:8577-85, 1999). […]
Reaction conditions for isomerase and LRAT reaction—The isomerase reaction was performed essentially as described previously (Stecher et al., J Biol Chem 274:8577-85, 1999). […] The average values were used and the standard deviations were calculated.

[1] = system: retinyl acetate hydrolase; experiment: direct assay of retinyl acetate hydrolase present in the RPE; assay type: biochemical; conditions: direct assays
CRALBP = CRALBP (Homo sapiens, UniProt P12271); experiment: analysis of retinoids bound to CRALBP isolated from the reaction mixture; assay type: binding
retinol dehydrogenases = experiment: direct assay of retinol dehydrogenases present in the RPE; assay type: biochemical; conditions: direct assays
[2] = system: visual function (a-wave and b-wave); experiment: single flash ERG responses of treated mice; assay type: in vivo, mouse
Method: A. Chromatographic separation of nonpolar retinoids from WT mouse eyes. Mice were gavaged with all-trans-Ret-NH2 24 hours prior to bleaching for 20 min at 150 cd·m^−2 W in the Ganzfeld chamber. Regeneration of 11-cis-retinal was allowed for 24 hours in the dark, and retinoids were extracted from the eye and separated by normal phase HPLC as described in Materials and Methods. The peaks were identified based on elution time and absorption spectra correspond to the following retinoids: 1, all-trans-retinyl esters; 2,2′, syn- and anti-11-cis-retinal oximes; 3, syn-all-trans-retinal oxime; 4,4′, syn- and anti-9-cis-retinal oximes; 5, all-trans-retinol. B. Changes of 11-cis-retinal oxime levels at increasing doses of all-trans-Ret-NH2 during 5 hours or 24 hours of dark adaptation. Square indicates the level of 11-cis-retinal oximes that was present in mice gavaged with vegetable oil without retinoids just after bleaching, and arrow indicates the increase of visual chromophore during 5 hours of dark adaptation. Triangles correspond to the level of 11-cis-retinal found in the mice gavaged with 50 mg/kg of 13-cis-RA. C and D. Single flash ERG responses of increasing intensity for all-trans-Ret-NH2 treated mice and control mice. Serial responses to increasing flash stimuli were obtained for all-trans-Ret-NH2 treated and control mice for selected intensities (C) and plotted as a function of a-wave and b-wave versus varying light intensities under dark-adapted conditions (D) before bleach and at 5 hours and 24 hours after bleach. The dark-adapted mice were bleached with intense constant illumination (150 cd·m^−2) for 20 min. […] SE bars are shown. […]
The conclusions derived from the analysis of retinoids of Ret-NH2-treated mice were supported by ERG analysis of visual functions. […] Next, the impact of all-trans-Ret-NH2 administration on the visual physiology of wild-type mice was evaluated in vivo with ERGs. […]

Chain of CRALBP (P12271 whole entry, species assumed): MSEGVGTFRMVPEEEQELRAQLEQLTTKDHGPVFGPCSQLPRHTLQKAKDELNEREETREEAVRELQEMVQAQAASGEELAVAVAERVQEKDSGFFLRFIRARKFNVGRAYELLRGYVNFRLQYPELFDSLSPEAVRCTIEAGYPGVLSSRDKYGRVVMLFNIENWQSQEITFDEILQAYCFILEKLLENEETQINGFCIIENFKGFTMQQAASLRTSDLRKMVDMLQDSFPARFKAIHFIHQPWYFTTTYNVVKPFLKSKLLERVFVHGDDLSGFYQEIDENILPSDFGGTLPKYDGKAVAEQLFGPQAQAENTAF

Compound: CC1=C(/C=C/C(C)=C/C=C/C(C)=C/CN)C(C)(C)CCC1 [Ret-NH2, Retinylamine]
- formation of all-trans-retinyl esters (LRAT activity) (LRAT): does not inhibit
- inhibition of retinyl acetate hydrolase [1]: did not inhibited
- binding to CRALBP (CRALBP): does not bind
- inhibition of retinol dehydrogenases (retinol dehydrogenases): did not inhibited

Compound: CC1=C(/C=C/C(C)=C/C=C/C(C)=C/CN)C(C)(C)CCC1 [all-trans-Ret-NH2, all-trans-retinylamine]
- dark-adapted ERG a- and b-wave responses after bleach ([2]; 50 mg/kg single dose, 20 min bleach, 5 and 24 hours after, P<0.0001 vs control): significantly attenuated
- light-adapted (photopic) ERG responses, cone function ([2]; 50 mg/kg single dose, before and 5 and 24 hours after bleach, p>0.1 vs control): attenuated weakly; also recorded: not affected by all-trans-Ret-NH2 to the same extent as rod function
- dark-adapted ERG before bleach ([2]; 24 hours after 50 mg/kg gavage): normal waveforms and responses
